Results published in patent US20010039297A1, “COMPOSITIONS AND METHOD FOR IMPROVING INSULIN SENSIVITY AND GLUCOSE METABOLISM IN INDIVIDUALS WITH IMPAIRED FASTING GLUCOSE OR IMPAIRED GLUCOSE TOLERANCE” (Insmed Pharmaceuticals, Inc., priority 1998, published 2001).

Assays:
Type in all cases: in vivo, human
obese men = test: tolbutamide-modified frequently sampled intravenous glucose tolerance test (FSIGTT), insulin sensitivity index by minimal model, clinical study; details: single oral dose 300-1200 mg, fasted, 2 hours before FSIGTT
Source text: The third method of determining insulin sensitivity involves frequently collecting blood samples for glucose and insulin during an intravenous glucose tolerance test, and analyzing the glucose and insulin dynamics using a minimal mathematical model developed by Bergman (Bergman et. al., J. Clin. Invest. 68:1456-1467 (1981)). This test can be modified by the injection of tolbutamide or exogenous insulin to boost the insulin response and improve the correlation with the euglycemic clamp. The FSIGTT provides an accessible way to determine the insulin sensitivity index (S1). The more insulin insensitive a subject is, the lower the calculated S1. As insulin sensitivity is improved, the S1 value is increased—thus a higher S1 value corresponds to greater insulin sensitivity.
A clinical study of D-chiro-inositol was performed in obese men. This was a three phase, double blind, single oral dose crossover study with subjects receiving either D-chiro-inositol (300-1200 mg) or placebo in a randomized crossover fashion. Treatments were administered to subjects in a fasted state 2 hours before the tolbutamide-modified frequently sampled intravenous glucose tolerance test (FSIGTT) began.
The insulin sensitivity index (S1) was derived using the minimal model analysis of plasma glucose and insulin concentrations sampled during a full tolbutamide-modified FSIGTT.

[1] = test system: obese men and women with normal glucose tolerance; test: oral glucose tolerance test before and after treatment, clinical study, subjects with normal glucose tolerance; details: eleven volunteers with normal glucose response; 1200 mg/day for 7 to 14 days
Experimental: (§1) Impaired glucose tolerance, as defined by the World Health Organization, is determined by the administration of a standard oral glucose tolerance test (OGTT) (World Health Org., Diabetes Mellitus, Tech. Rep. Ser., no. 727 (1985)). During an OGTT, a measured amount of glucose (75 grams) is given to a fasted individual and blood glucose levels are measured every 30 minutes, usually for 2 or 3 hours. In a individual with normal glucose tolerance, the blood glucose values will rise during the first part of the test and then rapidly return to basal levels. In an IGT individual the post prandial glucose levels will rise above the normal range, producing a 2-hour glucose value of 140-199 mg/dL, and return to basal levels at a slow rate.
(§2) A clinical study utilizing D-chiro-inositol was performed in obese men and women with normal and abnormal glucose tolerance. Eighteen volunteers received D-chiro-inositol (1200 mg/day) for 7 to 14 days. An oral glucose tolerance test was performed at the beginning of the study, prior to treatment, and at the end of the study, after D-chiro-inositol treatment.

[2] = test system: obese men and women with abnormal glucose tolerance; test: oral glucose tolerance test before and after treatment, clinical study, subjects with abnormal glucose tolerance; details: 1200 mg/day for 7 to 14 days
Experimental: as §1, §2

## OC1C(O)C(O)C(O)C(O)C1O [D-chiro-inositol]
Obese men
  mean increase in insulin sensitivity: 61%
Obese men; out of 9 subjects
  subjects demonstrating an increase in insulin sensitivity (S1): 6 out of 9
[1]
  glucose values during OGTT: not modified
[2]; abnormal glucose tolerant subjects, p<0.05
  90 and 120 minute glucose values in OGTT: statistically significant reduction
[2]; seven subjects with abnormal, elevated glucose response
  glucose response to the glucose load (OGTT): significantly improved
